Laboratory results: US5571786A, “Use of protein C or the activation peptide of protein C for preparing a pharmaceutical preparation” (Immuno Aktiengesellschaft, priority 1990, dated 1996)
Several values for one entry are separate records, joined by “and”; a condition that tells them apart may be missing. Identical values can stand only once.

What was measured:
[1] = test system: inflamed rat paw model; test: inflamed rat paw model: pain threshold after local carrageenan (Randall and Selitto); type: in vivo; details: for antagonism of the anti-nociceptive effect of protein C: β-blocking agent given with protein C; for Pain threshold: 3 hrs after carrageenan, protein C 800 U/kg
Source text: See, Kirchhoff et al., Neuroscience Lett. 111:206-210 (1990). Subcutaneous administration of carrageenan into the rat paw produces an inflammatory edema characterized by infiltration of neutrophils, plasma extravasation, release and synthesis of histamine, bradykinins and prostaglandin E2. Id. As such, the rat paw is a recognized model of the inflammatory process and may be utilized for studying the nociceptive effects attendant thereto. Id. Thus, the rat paw provides a recognized model for evaluating the anti-nociceptive effects of protein C and/or the activation peptide of protein C according to the present invention.
The pain threshold was measured in a manner analogous to the method described by Randall and Selitto (Randall LO and Selitto JJ: A method for measurement of analgesic activity on inflamed tissue, Arch. Int. Pharmacodyn. 111, 409-419, 1957). To this end, a mercury manometer was connected to a 10 ml syringe whose plunger was equipped with a short bullet-shaped peg. Increasing pressure was applied to the rat's paw through this syringe (20 mmHg/s). The pain threshold was defined as the pressure in mmHg required to induce a flight (struggle) reaction.
Female Sprague-Dawley rats weighing between 250 and 350 g were used. Inflammation was produced by the intraplanter (i.pl.) injection of 3 mg carrageenan (Sigma Chemical Co., Cat. No., C-1013) suspended in 100 μl isotonic saline solution (0.9%) into the rat's paw.
The pain threshold was measured before (control value) and every hour up to six hours after the injection of carrageenan. The pain threshold measured after carrageenan injection was expressed in percent of the control value.
Unless otherwise specified, protein C was intravenously injected into a vein of the tail immediately upon the carrageenan injection. The injection volume was 2 ml/kg.
A dose response curve for protein C administered i.v. and protein C (i.v.) immediately followed by a solution of 1 mg/kg antibody HPC-4 (i.v.) was determined. The experiments were carried out essentially as set forth in Example 4.
The anti-nociceptive effects of the activation peptide of protein C (SEQ. ID. NO. 1) prepared as described in Example 7 were determined essentially as described in Examples 4 and 6. In the test animals, the […], each, in a constant injection volume of 2 ml/kg, simultaneously with intraplantar (i.pl.) administration of carrageenan into the rat's paw to induce an inflammatory response and pain. In a second set of test animals, antibody HPC-4 (1 mg/kg) was administered i.v. immediately following i.v. administration of the peptide (SEQ. ID. NO. 1). The anti-nociceptive effects of the peptide (SEQ. ID. NO. 1) administration and antagonism thereof by antibody HPC-4 as measured 6 hours later are shown in FIG. 3.

[2] = test system: endotoxin shock; details: Taylor et al. 1987; cited from earlier work
[3] = test system: coronary blood flow; details: intracoronary administration; cited from earlier work
[4] = test system: thrombus formation on prosthetic vascular grafts; details: infusion; Gruber et al. 1989; cited from earlier work
[5] = protein C activity, aminolytic assay after activation by Protac; type: biochemical; details: finished lyophilized preparation; 1 unit = protein C activity in 1 ml normal plasma
Protocol: The prothrombin complex concentrate was dissolved in the absorption buffer of Example 1, with about 10 g of the prothrombin complex concentrate being employed for a 20 ml monoclonal antibody column. Subsequently, the dissolved prothrombin complex concentrate was filtered, centrifuged at 20,000 r.p.m. for 15 min. and sterilely filtered through a 0.8 μm filter. The sterilely filtered and dissolved prothrombin complex concentrate was applied to the column at a flow rate of 10 ml/h. Subsequently, the column was washed free of protein with the washing buffer of Example 1, the bound protein C was eluted by means of the elution buffer of Example 1 at a flow rate of 5 ml/h and the fractions containing eluted protein C were collected and pooled. The eluted protein C was dialyzed against a buffer (0.2 mol/1 Tris, 0.15 mol glycine and 1 mmol EDTA, pH 8.3). Protein C antigen concentration was determined using the method described by Laurell, and protein C activity was determined using Protac activation.
The lyophilized, virus inactivated material was then dissolved in a sterile isotonic NaCl solution and any antibodies or serum amyloid P potentially present in the preparation were eliminated by means of ion exchange chromatography on a Q-Sepharose column. […] Neither murine immunoglobulin nor Factors II, VII, IX and X could be detected. […]

[6] = test system: histamine-induced enhanced vascular permeability; test: histamine-induced enhanced vascular permeability (Evan's Blue wheals); type: in vivo, guinea pigs
Protocol: (§1) The effect of protein C on capillary leakage in guinea pigs was studied in order to confirm the efficacy of protein C in antagonizing enhanced vessel permeability in anesthetized guinea pigs. The study was carried out as follows:
(§2) After intravenous administration of Evan's Blue, anesthetized guinea pigs received either a protein C concentrate or a formulation buffer. Thereafter, the test animals were treated with histamine or thrombin intracutaneously to induce enhanced vessel permeability, or with saline as a control. The animals were then examined visually for the occurrence of discoloration of the resulting wheals. The results are depicted in FIG. 4 (histamine treatment, protein C or saline), FIG. 5 (thrombin treatment, protein C or saline) and FIG. 6 (thrombin treatment, buffer or saline).
(§3) In these studies, a colorless wheal was recorded as a negative observation (i.e., no disturbance in permeability), whereas a blue skin coloration at the injection site was defined as a positive observation (i.e. increased vessel permeability). The percentage of positive wheals among total wheals produced by the same substance and does within each group of treated animals (n=12 per treatment group) was calculated. […]

[7] = test system: perivascular leukocytes; test: histological examination of the rat paws; type: in vivo; details: rat paws after protein C, compared to untreated animals
Source text: Thus, protein C appears to have an effect on vessel permeability, which allows the migration of leukocytes through the blood vessel into the perivascular region.

[8] = test system: thrombin-induced enhanced vascular permeability; test: thrombin-induced enhanced vascular permeability (Evan's Blue wheals); type: in vivo, guinea pigs
Protocol: as §1, §2, §3

CC(Cc1ccc(O)cc1)NCC(O)c1cc(O)cc(O)c1 (centres unmarked) [fenoterol, reference compound]
anti-nociceptive effect ([1]; i.v., either 5 mg/kg at the beginning of the assay or 3 mg/kg at the 3 hr time point): marked anti-nociceptive effect

CC(C)NCC(O)COc1cccc2[nH]ccc12 (centres unmarked) [pindolol, reference compound]
antagonism of the effect of protein C in sympathectomized animals ([1]; reserpine and alpha-methyl-p-tyrosine treated): completely antagonizes the effect of protein C
antagonism of the anti-nociceptive effect of protein C [1]: antagonize the effect of protein C in a dose-dependent manner

CC(C)NCC(O)COc1cccc2ccccc12 (centres unmarked) [propranolol, reference compound]
antagonism of the anti-nociceptive effect of protein C [1]: antagonizes the anti-nociceptive effect of protein C

NH2 -Asp-Thr-Glu-Asp-Gln-Glu-Asp-Gln-Val-Asp-Pro-Arg-COOH (H-DTEDQEDQVDPR-OH) [activation peptide of protein C]
anti-nociceptive effect ([1]; peptide i.v. 3.125 to 100 μg/kg, measured 6 hours later, FIG. 3): has an anti-nociceptive effect

activated protein C
protection against coagulopathic and lethal effects of endotoxin shock [2]: protect animals against the coagulopathic and lethal effects of endotoxin shock
coronary blood flow [3]: increase in coronary blood flow
thrombotic occlusion [4]: Thrombotic occlusion was prevented

protein C: Highly purified human protein C zymogen from prothrombin complex concentrate, purified by monoclonal antibody affinity chromatography, virus inactivated
specific activity [5]: 14 units protein C per mg
Pain threshold ([1]; % of the pain threshold (control value)): 65 ± 2.0% and 60 ± 6%
Pain threshold ([1]; animals treated with reserpine and alpha-methyl-p-tyrosine): 106.7 ± 18.1%
anti-nociceptive effect ([1]; protein C i.v. immediately upon carrageenan, 8 to 800 U/kg, FIG. 1): significant, dose-dependent anti-nociceptive effect
signs of inflammation, such as oedema ([1]; protein C intravenously, carrageenan intraplantar): signs of inflammation, such as oedema, were reduced
anti-nociceptive effect after chemical sympathectomy ([1]; reserpine 7.5 mg/kg i.p. and alpha-methyl-p-tyrosine 250 mg/kg i.p.): still acts as a highly effective anti-nociceptive
anti-nociceptive effect ([1]; subcutaneous administration): also detectable with subcutaneous administration
shift of the histamine dose-response curve to the right (factor) ([6]; 800 IU protein C/Kg i.v., % positive wheals, FIG. 4): 4
effect on histamine-increased endothelial permeability ([6]; pretreatment with protein C): effective in preventing the effects of both histamine and thrombin on increased endothelial permeability
number of perivascular leukocytes [7]: reduced number of perivascular leukocytes compared to the untreated animals
shift of the thrombin dose-response curve to the right (factor) ([8]; 800 IU protein C/Kg i.v., % positive wheals, FIG. 5): 9
effect on thrombin-increased endothelial permeability ([8]; pretreatment with protein C): effective in preventing the effects of both histamine and thrombin on increased endothelial permeability
